Measured values as given in US8344028B2, “Gamma-amino-butyric acid derivatives as GABAB receptor ligands” (XenoPort, Inc., priority 2009, dated 2013).

Target: GABAB receptor (Homo sapiens, UniProt Q9UBS5)
Experiment: GABAB receptor agonist or partial agonist activity by binding, electrophysiology, cAMP and/or Ca2+ assay methods (Examples 83-86)
Type: cell-based
Experimental: An assay using rat cerebral cortex membranes was used to determine the affinity of GABAB receptor ligands for the GABAB receptor.
An assay buffer of 50 mM Tris pH 7.4 was prepared with 100 μM of isoguvacine, to block GABAA interactions. The assay buffer with isoguvacine was used for dilution of membranes, compounds, and radiolabel.
Rat cerebral cortex membranes were diluted in assay buffer at 1 mg/mL and aliquoted into a 96-well plate at 900 μL/well. Buffer or test compound were added at 20-times final concentration in the buffer at 50 μL/well. Membranes and test compounds or buffer were incubated for 10 min. at room temperature. Radiolableled [S—(R*,R*)]-[3-[[1-(3,4-dichlorophenyl)ethyl]amino]-2-hydroxypropyl](cyclohexylmethyl) phosphinic acid (CGP54626) was then added at 50 μL/well in the buffer at 1-10 nM concentration in 50 μl. […] The assay mixture was filtered using Brandell filtration apparatus and GFB filters, washed twice with 3 mL of 4° C., 50 mM Tris pH 7.4, buffer without isoguvacine. The filters were then dried at room temperature and the dried filters punched out and placed in individual vials. Three (3) mL of scintillation fluid was added to each vial and the radiolabel counted on the scintillation counter. The inverse amount of radiolabel was indicative of binding of a test compound to the GABAB receptor.
The following procedure was used to determine the level of intracellular cAMP. Recombinant HEK cells expressing the GABAB R1a2 receptor were used in the experiments. cAMP levels were measured using a cAMP XS^+ HitHunter™ Chemiluminescence Assay Kit (90-0075-02, GE Healthcare Biosciences Corp.). Cells were seeded overnight at 5,000 cells per well, in black, clear bottom 96-well plates. The following morning, cells were washed twice with 100 μL PBS per well. Forskolin was weighed out and dissolved in DMSO to a final concentration 100 mM. One-hundred (100) μM forskolin solutions were prepared in PBS with and without test compound at 1-times final concentration. Thirty (30) μL of the test solutions were added to the wells and incubated for 1 h at room temperature. The cAMP concentration was determined according to the protocol described in the cAMP assay kit, maintaining the plate at room temperature and in the dark. […] Each well was read for 6 seconds. The untransformed data was then analyzed.
The following procedure was used to determine the GABAB receptor agonist activity of a compound as reflected by activation of Ca^2+ signaling. HEK TREx cells expressing GABABR1a2 under tetracycline induction control, and Gqi chimeric protein (expressed constitutively), allowing GABABR coupling through the Ca^2+ signaling pathway were used in the experiments.
Cells were seeded in media containing tetracycline overnight at 100,000 cells/well, in black, clear-bottom, 96-well plates. The following morning, cells were washed twice with 100 μL HBSS buffer per well. Fluorescent Ca^2+ indicator dye was prepared using the materials and procedure described in the F362056 Fluo-4 NW Calcium Assay Kit (Invitrogen, Carlsbad, Calif.). Ten (10) mL of kit buffer and 100 μl of kit Probenecid were added to individual kit dye vials, and rolled back and forth several times to dissolve the dye. Cells were then loaded into the dye solution at 50 μL per well. The cells and dye were incubated for 30 min at 37° C., and then incubated for an additional 30 min at room temperature in the dark. Test compounds are dissolved in HBSS buffer at twice final concentration. Duplicate wells were used for each unique condition. Solution containing the test compound was added to the wells using a FLEXStation II (Molecular Devices, Sunnyvale, Calif.). Using the instrument in kinetic mode in which each well was read every 2 sec over a total collection time of 50 sec fluorescence was measured using an excitation wavelength 494 nm and a detection wavelength of 516 nm. A normalized fluorescence value for each well was calculated using the following procedure.

Chain of GABAB receptor (Q9UBS5 20-961): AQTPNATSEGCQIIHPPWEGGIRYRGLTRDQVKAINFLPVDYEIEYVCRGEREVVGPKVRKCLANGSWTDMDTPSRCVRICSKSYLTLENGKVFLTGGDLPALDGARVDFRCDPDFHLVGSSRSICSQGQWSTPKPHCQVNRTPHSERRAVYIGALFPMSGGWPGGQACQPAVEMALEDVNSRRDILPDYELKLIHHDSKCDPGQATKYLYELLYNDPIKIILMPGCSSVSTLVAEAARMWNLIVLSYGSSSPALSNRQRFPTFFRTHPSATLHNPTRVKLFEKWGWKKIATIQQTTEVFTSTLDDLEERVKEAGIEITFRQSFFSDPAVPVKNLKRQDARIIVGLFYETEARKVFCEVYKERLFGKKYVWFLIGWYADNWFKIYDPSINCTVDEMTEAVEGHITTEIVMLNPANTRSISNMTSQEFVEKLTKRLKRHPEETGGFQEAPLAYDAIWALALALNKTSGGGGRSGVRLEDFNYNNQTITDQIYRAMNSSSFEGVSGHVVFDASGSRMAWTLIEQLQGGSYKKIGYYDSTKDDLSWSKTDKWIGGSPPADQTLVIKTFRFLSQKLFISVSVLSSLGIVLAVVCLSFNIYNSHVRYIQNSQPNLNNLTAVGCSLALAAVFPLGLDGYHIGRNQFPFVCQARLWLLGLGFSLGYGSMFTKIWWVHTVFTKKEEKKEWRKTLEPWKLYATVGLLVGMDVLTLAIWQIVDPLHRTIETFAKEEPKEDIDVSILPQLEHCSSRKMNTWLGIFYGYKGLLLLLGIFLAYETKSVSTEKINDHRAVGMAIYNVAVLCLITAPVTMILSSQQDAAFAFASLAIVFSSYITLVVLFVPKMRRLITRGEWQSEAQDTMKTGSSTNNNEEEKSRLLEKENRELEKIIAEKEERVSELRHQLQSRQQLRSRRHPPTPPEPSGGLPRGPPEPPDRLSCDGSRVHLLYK
Chain of GABAB receptor (O75899 42-941 partner): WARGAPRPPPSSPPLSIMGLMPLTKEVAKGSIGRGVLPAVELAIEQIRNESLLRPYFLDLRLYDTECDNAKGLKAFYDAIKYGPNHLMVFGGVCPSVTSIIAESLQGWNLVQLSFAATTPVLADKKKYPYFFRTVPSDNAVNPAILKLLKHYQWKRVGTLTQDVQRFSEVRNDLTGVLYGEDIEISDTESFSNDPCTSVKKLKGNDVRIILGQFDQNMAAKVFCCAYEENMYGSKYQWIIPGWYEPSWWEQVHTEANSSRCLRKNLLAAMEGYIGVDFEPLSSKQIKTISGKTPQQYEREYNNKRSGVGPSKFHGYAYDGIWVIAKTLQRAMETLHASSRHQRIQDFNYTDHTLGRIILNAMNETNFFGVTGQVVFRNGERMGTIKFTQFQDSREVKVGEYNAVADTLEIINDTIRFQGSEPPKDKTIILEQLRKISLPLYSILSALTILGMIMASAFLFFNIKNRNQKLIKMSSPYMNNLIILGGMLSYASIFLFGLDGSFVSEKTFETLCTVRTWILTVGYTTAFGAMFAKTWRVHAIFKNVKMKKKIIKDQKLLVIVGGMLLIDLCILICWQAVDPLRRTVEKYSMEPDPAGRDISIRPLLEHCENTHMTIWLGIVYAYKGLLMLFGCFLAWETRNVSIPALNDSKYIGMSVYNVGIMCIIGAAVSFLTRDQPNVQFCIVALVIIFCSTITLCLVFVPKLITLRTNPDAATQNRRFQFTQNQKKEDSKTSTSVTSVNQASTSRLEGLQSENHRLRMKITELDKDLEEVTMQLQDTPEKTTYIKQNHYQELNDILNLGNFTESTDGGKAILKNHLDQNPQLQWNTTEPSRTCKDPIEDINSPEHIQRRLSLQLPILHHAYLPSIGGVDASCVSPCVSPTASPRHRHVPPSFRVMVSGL

SMILES | GABAB receptor agonist or partial agonist activity
NC[C@H](CC(=O)O)c1cc(Br)c(Cl)c(-c2cccnc2)c1 [(3R)-4-amino-3-(5-bromo-4-chloro-3-(3-pyridyl)phenyl)butanoic acid] | agonist or partial agonist activity
Cl.NC[C@H](CC(=O)O)c1ccc(Cl)c(NCc2cc(C(F)(F)F)cc(C(F)(F)F)c2)c1 [(3R)-4-amino-3-[3-({[3,5-bis(trifluoromethyl)phenyl]methyl}amino)-4-chlorophenyl]butanoic acid hydrochloride] | agonist or partial agonist activity
CC(C)(C)Oc1ccc(CNc2cc([C@H](CN)CC(=O)O)ccc2Cl)cc1.Cl [(3R)-4-amino-3-[3-({[4-(tert-butoxy)phenyl]methyl}amino)-4-chlorophenyl]butanoic acid hydrochloride] | agonist or partial agonist activity
Cl.N#Cc1cccc(-c2cc([C@H](CN)CC(=O)O)cc(Br)c2Cl)c1 [(3R)-4-amino-3-[3-bromo-4-chloro-5-(3-cyanophenyl]butanoic acid hydrochloride] | agonist or partial agonist activity
Cl.N#Cc1cccc(-c2cc(Cl)ccc2[C@H](CN)CC(=O)O)c1 [(3R)-4-amino-3-[4-chloro-2-(3-cyanophenyl)phenyl]butanoic acid hydrochloride] | agonist or partial agonist activity
Cl.NC[C@H](CC(=O)O)c1ccc(Cl)c(-c2ccc(Cl)cc2Cl)c1 [(3R)-4-amino-3-[4-chloro-3-(2,4-dichlorophenyl)phenyl]butanoic acid hydrochloride] | agonist or partial agonist activity
Cl.NC[C@H](CC(=O)O)c1ccc(Cl)c(CCc2ccccn2)c1 [(3R)-4-amino-3-[4-chloro-3-(2-(2-pyridyl)ethyl)phenyl]butanoic acid hydrochloride] | agonist or partial agonist activity
NC[C@H](CC(=O)O)c1ccc(Cl)c(NC(=O)c2ccccn2)c1 [(3R)-4-amino-3-[4-chloro-3-(2-pyridylcarbonylamino)phenyl]butanoic acid] | agonist or partial agonist activity
Cl.NC[C@H](CC(=O)O)c1ccc(Cl)c(OCc2ccccn2)c1 [(3R)-4-amino-3-[4-chloro-3-(2-pyridylmethoxy)phenyl]butanoic acid hydrochloride] | agonist or partial agonist activity
Cl.NC[C@H](CC(=O)O)c1ccc(Cl)c(-c2cc(F)c(F)c(F)c2)c1 [(3R)-4-amino-3-[4-chloro-3-(3,4,5-trifluorophenyl)phenyl]butanoic acid hydrochloride] | agonist or partial agonist activity
Cl.NC[C@H](CC(=O)O)c1ccc(Cl)c(-c2ccc(Cl)c(Cl)c2)c1 [(3R)-4-amino-3-[4-chloro-3-(3,4-dichlorophenyl)phenyl]butanoic acid hydrochloride] | agonist or partial agonist activity
Cl.NC[C@H](CC(=O)O)c1ccc(Cl)c(-c2ccc(O)c(Cl)c2)c1 [(3R)-4-amino-3-[4-chloro-3-(3-chloro-4-hydroxyphenyl)phenyl]butanoic acid hydrochloride] | agonist or partial agonist activity
Cl.N#Cc1cccc(-c2cc([C@H](CN)CC(=O)O)ccc2Cl)c1F [(3R)-4-amino-3-[4-chloro-3-(3-cyano-2-fluorophenyl)phenyl]butanoic acid hydrochloride] | agonist or partial agonist activity
Cl.N#Cc1cc(-c2cc([C@H](CN)CC(=O)O)ccc2Cl)ccc1F [(3R)-4-amino-3-[4-chloro-3-(3-cyano-4-fluorophenyl)phenyl]butanoic acid hydrochloride] | agonist or partial agonist activity
Cc1ccc(-c2cc([C@H](CN)CC(=O)O)ccc2Cl)cc1C#N.Cl [(3R)-4-amino-3-[4-chloro-3-(3-cyano-4-methylphenyl)phenyl]butanoic acid hydrochloride] | agonist or partial agonist activity
Cl.N#Cc1cc(O)cc(-c2cc([C@H](CN)CC(=O)O)ccc2Cl)c1 [(3R)-4-amino-3-[4-chloro-3-(3-cyano-5-hydroxyphenyl)phenyl]butanoic acid hydrochloride] | agonist or partial agonist activity

The next lines start with the values.

GABAB receptor agonist or partial agonist activity | SMILES
agonist or partial agonist activity | Cl.N#Cc1ccc(O)c(-c2cc([C@H](CN)CC(=O)O)ccc2Cl)c1 [(3R)-4-amino-3-[4-chloro-3-(3-cyano-6-hydroxyphenyl)phenyl]butanoic acid hydrochloride]
agonist or partial agonist activity | NC[C@H](CC(=O)O)c1ccc(Cl)c(-c2ccsc2)c1 [(3R)-4-amino-3-[4-chloro-3-(3-thienyl)phenyl]butanoic acid]
agonist or partial agonist activity | Cl.NC[C@H](CC(=O)O)c1ccc(Cl)c(-c2cc(Cl)ccn2)c1 [(3R)-4-amino-3-[4-chloro-3-(4-chloro(2-pyridyl))phenyl]butanoic acid hydrochloride]
agonist or partial agonist activity | Cc1cc(-c2cc([C@H](CN)CC(=O)O)ccc2Cl)ccc1Cl.Cl [(3R)-4-amino-3-[4-chloro-3-(4-chloro-3-methylphenyl)phenyl]butanoic acid hydrochloride]
agonist or partial agonist activity | Cl.NC[C@H](CC(=O)O)c1ccc(Cl)c(Cc2ccncc2)c1 [(3R)-4-amino-3-[4-chloro-3-(4-pyridylmethyl)phenyl]butanoic acid hydrochloride]
agonist or partial agonist activity | Cl.N#Cc1cc(Cl)cc(-c2cc([C@H](CN)CC(=O)O)ccc2Cl)c1 [(3R)-4-amino-3-[4-chloro-3-(5-chloro-3-cyanophenyl)phenyl]butanoic acid hydrochloride]
agonist or partial agonist activity | Cl.N#Cc1cncc(-c2cc([C@H](CN)CC(=O)O)ccc2Cl)c1 [(3R)-4-amino-3-[4-chloro-3-(5-cyano(3-pyridyl))phenyl]butanoic acid hydrochloride]
agonist or partial agonist activity | Cl.N#Cc1cccc(-c2cc([C@H](CN)CC(=O)O)ccc2Cl)n1 [(3R)-4-amino-3-[4-chloro-3-(6-cyano(2-pyridyl))phenyl]butanoic acid hydrochloride]
agonist or partial agonist activity | CN(C(=O)c1ccccc1)c1cc([C@H](CN)CC(=O)O)ccc1Cl.Cl [(3R)-4-amino-3-[4-chloro-3-(N-methylphenylcarbonylamino)phenyl]butanoic acid hydrochloride]
agonist or partial agonist activity | Cl.NC[C@H](CC(=O)O)c1ccc(Cl)c(OCc2ccccc2)c1 [(3R)-4-amino-3-[4-chloro-3-(phenylmethoxy)phenyl]butanoic acid hydrochloride]
agonist or partial agonist activity | Cl.NCc1cccc(-c2cccc([C@H](CN)CC(=O)O)c2)c1 [(3R)-4-amino-3-{3-[3-(aminomethyl)phenyl]phenyl}butanoic acid hydrochloride]
agonist or partial agonist activity | Cl.NC[C@H](CC(=O)O)c1ccc(Cl)c(-c2ccc(CC(=O)O)cc2)c1 [(3R)-4-amino-3-{3-[4-(carboxymethyl)phenyl]-4-chlorophenyl}butanoic acid hydrochloride]
